According to ChEMBL document CHEMBL5113477, “Membrane acting Povarov-Doebner derived compounds potently disperse preformed multidrug resistant Gram-positive bacterial biofilms” (Eur J Med Chem, 2022):

Test system: Staphylococcus aureus
Assay: Bactericidal activity against persister methicillin-resistant Staphylococcus aureus ATCC 33592 at 1 times MIC incubated for 8 hrs by time kill assay
Type: functional

Oc1ccc([C@@H]2Nc3ccc(S(F)(F)(F)(F)F)cc3[C@H]3[C@@H]4CC[C@@H](C4)[C@H]32)cc1
Activity: 100%
